According to patent US6333447A, “Transgenic model of heart failure” (The General Hospital Corporation, priority 1996, dated 2001):

Experiments:
mice = conditions: chronic administration; cited from earlier work
[1] = test system: transgenic (Gsα overexpressing) and wild-type control mice; test: Left ventricular contractility (LV dP/dt) by Millar micromanometer with heart rate held constant by pacing
rats = conditions: infusion for several weeks; cited from earlier work
[2] = test system: transgenic (Gsα overexpressing) and control mice; test: M-mode echocardiography and ECG during graded intravenous infusion of sympathomimetic amines in anesthetized mice
[3] = TG mice, isoproterenol infusion 0.005 μg/kg/min
[4] = TG mice, isoproterenol infusion 0.01 μg/kg/min
[5] = TG mice, isoproterenol infusion 0.02 μg/kg/min
[6] = TG mice, isoproterenol infusion 0.02 μg/kg/min, listed as Isoproterenol
[7] = control mice, isoproterenol infusion 0.01 μg/kg/min
[8] = control mice, isoproterenol infusion 0.02 μg/kg/min
[9] = control mice, isoproterenol infusion 0.02 μg/kg/min, listed as Isoproterenol
[10] = control mice, isoproterenol infusion 0.04 μg/kg/min
[11] = TG mice, norepinephrine infusion 0.05 μg/kg/min
[12] = TG mice, norepinephrine infusion 0.1 μg/kg/min
[13] = TG mice, norepinephrine infusion 0.2 μg/kg/min
[14] = TG mice, norepinephrine infusion 0.2 μg/kg/min, listed as Norepinephrine
[15] = control mice, norepinephrine infusion 0.1 μg/kg/min
[16] = control mice, norepinephrine infusion 0.2 μg/kg/min
[17] = control mice, norepinephrine infusion 0.2 μg/kg/min, listed as Norepinephrine
[18] = control mice, norepinephrine infusion 0.4 μg/kg/min

## CC(C)NCC(O)c1ccc(O)c(O)c1 (centres unmarked) [isoproterenol]
mice
  Hypertrophic response: enhanced hypertrophic responses
[1]; transgenic mice, heart rate held constant (9.0-0.6 Hz), isoproterenol 0.02 μg/kg/min
  Increase of left ventricular contractility (LV dP/dt) from baseline: 33±2%
[1]; wild-type control mice, heart rate held constant (8.0±0.0 Hz), isoproterenol 0.02 μg/kg/min, baseline 6923±281 mm Hg/sec
  Increase of left ventricular contractility (LV dP/dt) from baseline: 13±2%
rats
  Myocardial pathology: myocardial hypertrophy with cellular necrosis and replacement fibrosis
[2]; [3]
  Ejection Fraction: 80.6 ± 3.2%
  Fractional Shortening: 42.5 ± 3.2%
  Heart Rate: 369 ± 12 beats/min
  LVID end-diastole: 3.5 ± 0.3 mm
  LVID end-systole: 2.0 ± 0.1 mm
[2]; [4]
  Ejection Fraction: 89.5 ± 2.6%
  Fractional Shortening: 53.5 ± 3.5%
  Heart Rate: 389 ± 10 beats/min
  LVID end-diastole: 3.4 ± 0.2 mm
  LVID end-systole: 1.6 ± 0.1 mm
[2]; [5]
  Ejection Fraction: 96±1%
  Fractional Shortening: 68±4%
  Heart Rate: 433 beats/min
  LVID end-diastole: 3.1 mm
  LVID end-systole: 1.0 ± 0.1 mm
[2]; [6]
  Ejection Fraction: 96.3 ± 1.3%
  Fractional Shortening: 67.9 ± 4.2%
[2]; [7]
  Ejection Fraction: 76.7 ± 1.2%
  Fractional Shortening: 38.5 ± 1.1%
  Heart Rate: 213 ± 16 beats/min
  LVID end-diastole: 4.0 ± 0.1 mm
  LVID end-systole: 2.4 ± 0.0 mm
[2]; [8]
  Ejection Fraction: 86±3%
  Fractional Shortening: 48±3%
  Heart Rate: 236 ± 8 beats/min
  LVID end-diastole: 3.9 ± 0.1 mm
  LVID end-systole: 2.0 mm
[2]; [9]
  Ejection Fraction: 85.8%
  Fractional Shortening: 48.3%
[2]; [10]
  Ejection Fraction: 94.1 ± 2.0%
  Fractional Shortening: 62.8 ± 5.7%
  Heart Rate: 289 beats/min
  LVID end-diastole: 3.6 ± 0.1 mm
  LVID end-systole: 1.3 ± 0.2 mm
[2]; increasing doses of isoproterenol, both groups
  Left ventricular end-diastolic dimensions: decreased dose-dependently

## NC[C@H](O)c1ccc(O)c(O)c1 [norepinephrine]
[1]; transgenic mice, heart rate held constant (8.3±1.2 Hz), norepinephrine 0.1 μg/kg/min
  Increase of left ventricular contractility (LV dP/dt) from baseline: 65±8%
[1]; wild-type control mice, heart rate held constant (6.0±0.0 Hz), norepinephrine 0.1 μg/kg/min, baseline 7292±461 mm Hg/sec
  Increase of left ventricular contractility (LV dP/dt) from baseline: 28±4%
[2]; [11]
  Ejection Fraction: 79.8 ± 4.0%
  Fractional Shortening: 41.9 ± 3.9%
  Heart Rate: 320 ± 13 beats/min
  LVID end-diastole: 3.6 ± 0.1 mm
  LVID end-systole: 2.1 ± 0.1 mm
[2]; [12]
  Ejection Fraction: 88.3 ± 3.8%
  Fractional Shortening: 52.2 ± 4.8%
  Heart Rate: 322 ± 16 beats/min
  LVID end-diastole: 3.6 ± 0.2 mm
  LVID end-systole: 1.7 ± 0.2 mm
[2]; [13]
  Ejection Fraction: 93±2%
  Fractional Shortening: 59±4%
  Heart Rate: 341 ± 18 beats/min
  LVID end-diastole: 3.6 mm
  LVID end-systole: 1.5 ± 0.2 mm
[2]; [14]
  Ejection Fraction: 92.8 ± 2.1%
  Fractional Shortening: 59.4 ± 4.1%
[2]; [15]
  Ejection Fraction: 78.3 ± 0.1%
  Fractional Shortening: 39.9 ± 0.5%
  Heart Rate: 241 ± 27 beats/min
  LVID end-diastole: 4.0 ± 0.1 mm
  LVID end-systole: 2.4 ± 0.1 mm
[2]; [16]
  Ejection Fraction: 85±3%
  Fractional Shortening: 47±3%
  Heart Rate: 252 ± 33 beats/min
  LVID end-diastole: 4.1 ± 0.1 mm
  LVID end-systole: 2.2 mm
[2]; [17]
  Ejection Fraction: 84.8%
  Fractional Shortening: 47.0%
[2]; [18]
  Ejection Fraction: 92.3 ± 2.0%
  Fractional Shortening: 58.2 ± 3.9%
  Heart Rate: 272 ± 44 beats/min
  LVID end-diastole: 4.0 ± 0.1 mm
  LVID end-systole: 1.7 ± 0.2 mm
[2]; norepinephrine infusion, either group (control or transgenic)
  Chronotropic effect: no significant chronotropic effect
[2]; norepinephrine infusion, transgenic or control group
  Effect on left ventricular end-diastolic dimensions: no effect
